In assay [1] the target is AKT1 (Homo sapiens, UniProt P31749). Briefly: Biochemical assay for inhibitors of AKT1 kinase activity (33P trans-phosphorylation, Dowex resin). On the set-up: made in house. The following applies: 5 nM enzyme, 132 microM ATP, 30 microM peptide substrate; read-out: AKT1 IC50 (µM) Biochem assay. How it is done:
(§1) The N-terminal GST fusion proteins used for the assays were prepared according to the methods described in Kumar, C. C. Biochem. Biophys. ACTA 2001, 1526, 257-268, and in Alessi, D. R.. Biochem. J. 1998 331, 299-308.
The inhibitory activity of putative kinase inhibitors and the potency of selected compounds were determined using a trans-phosphorylation assay.
A specific substrate was incubated with the kinase in appropriate buffer conditions in the presence of ATP traced with ^33P-γ-ATP (gamma phosphate-labeled, Redivue™ Code Number AH9968, 1000-3000Ci/mmole, Amersham Biosciences Piscataway, NJ, USA), optimal cofactors and test compound.
At the end of the phosphorylation reaction, more than 98% cold and radioactive ATP were captured by an excess of Dowex ion exchange resin. The resin was allowed to settle to the bottom of reaction wells by gravity. Supernatant, containing substrate peptide, was subsequently withdrawn and transferred into a counting plate, and radioactivity (corresponding to phosphate incorporated into peptide) was evaluated by β-counting.
Kinase buffer was composed of 50 mM TRIS pH 7.5 containing10 mM MgCl2, 1 mM DTT, 3 microM Na3VO4, and 0.2 mg/mL BSA. 3X KB is buffer of the same composition and pH as KB, but with three times the concentration of each component. iii.Assay conditions (final concentrations) for AKT1.
The kinase assay was run with a final enzyme concentration of 5 nM, in the presence of 132 microM ATP, 0.88 nM ^33P-γ-ATP and 30 microM substrate, a carboxy-terminally biotinylated peptide of the following sequence: ARKRERTYSFGHHA-biotin. The peptide was obtained in batches of >95% peptide purity from PRIMM labs Inc. (Boston MA, USA).
The "test" mixture of 15 microL consisting of: • 1) 5 µl/well of 3x Enzyme mix (done in Kinase Buffer 3X), • 2) 5 µl/well of 3x substrate and ATP mix (done in ddH2O), together with ^33P-γ-ATP, • 3) 5 µl/well of 3x test compounds (diluted into ddH2O - 3% DMSO).
For % inhibition studies, dilution plates at 1 mM, 10 microM and 100 microM were prepared in 100% DMSO, then diluted to 3X final desired concentration (30, 3 and 0.3 microM) in ddH2O, 3% DMSO. A Multimek 96 (Beckman Coulter, Inc. 4300 N. Harbor Boulevard, P.O. Box 3100 Fullerton, CA 92834-3100 USA) was used for compound pipetting into test plates.
For IC50 determination, starting solutions of 30 microM compound in 3% DMSO were derived from 1 mM/100% DMSO stock solutions. These 30 microM starting solutions were used for generation of a further 9 serial 1/3 dilutions in ddH20, 3% DMSO, so as to generate a 10-point dilution curve at 3X the final assay concentration. Serial dilution was conducted in 96-well plates using a Biomek 2000 (Beckman Coulter) system. Dilution curves of 7 compounds/plate were prepared, and each plate also included a 10-point dilution curve of Staurosporine, as well as several negative and positive control wells.
384-well plates, V bottom (test plates) are prepared with 5 µl of the compound dilution (3X) and then placed onto a PlateTrak 12 robotized station (Perkin Elmer; the robot has one 384-tips pipetting head for starting the assay plus one 96-tips head for dispensing the resin) together with one reservoir for the Enzyme mix (3X) and one for the ATP mix (3X).
At the start of the run, the robot aspirates 5 µl of ATP mix, makes an air gap inside the tips (3 µl) and aspirates 5 µl of AKT mix. The following dispensation into the plates allows the kinase reaction to start upon 3 cycles of mixing, done by the robot itself.
The robot incubates the plates for 60 minutes at room temperature, and then stops the reaction by pipetting 70 µl of dowex resin suspension into the reaction mix. Three cycles of mixing are done immediately after the addition of the resin.
Another mixing cycle is performed after all the plates are stopped, this time using normal tips: the plates are then allowed to rest for about one hour in order to maximize ATP capture. […]

Assay [2] concerns the target AKT3 (Homo sapiens, UniProt Q9Y243). Briefly: Biochemical assay for inhibitors of AKT3 kinase activity (33P trans-phosphorylation, Dowex resin). The following applies: 1 nM enzyme, 180 microM ATP, 28.5 microM peptide substrate; read-out: AKT3 IC50 (µM) Biochem assay. How it is done:
as §1
The in vitro kinase inhibition assay was conducted in the same way as described for AKT1. The kinase assay was run with a final enzyme concentration of 1 nM, in the presence of 180 microM ATP, 0.88 nM ^33P-γ-ATP and 28.5 microM substrate, a carboxy-terminally biotinylated peptide of the following sequence: ARKRERTYSFGHHA-biotin. The peptide was obtained in batches of >95% peptide purity from PRIMM labs Inc. (Boston MA, USA).

The target of assay [3] is T1, AKT2 (Homo sapiens, UniProt P31751).
T1 construct: made in house
T1 sequence (P31751 whole entry, species assumed): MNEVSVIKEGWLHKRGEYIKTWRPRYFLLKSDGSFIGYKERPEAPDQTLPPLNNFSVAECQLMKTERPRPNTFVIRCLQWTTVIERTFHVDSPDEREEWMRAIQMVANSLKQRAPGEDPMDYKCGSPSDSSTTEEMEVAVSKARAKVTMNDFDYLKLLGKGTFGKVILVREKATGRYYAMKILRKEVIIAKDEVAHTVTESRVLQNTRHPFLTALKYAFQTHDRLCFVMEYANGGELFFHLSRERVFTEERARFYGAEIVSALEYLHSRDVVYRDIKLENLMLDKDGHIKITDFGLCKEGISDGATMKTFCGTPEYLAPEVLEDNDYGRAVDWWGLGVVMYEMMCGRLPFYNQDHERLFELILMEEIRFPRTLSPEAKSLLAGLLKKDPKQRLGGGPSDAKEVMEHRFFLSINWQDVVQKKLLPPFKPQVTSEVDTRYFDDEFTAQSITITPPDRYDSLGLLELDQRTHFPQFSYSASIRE
Nature of the assay: Biochemical assay for inhibitors of AKT2 kinase activity (33P trans-phosphorylation, Dowex resin). The following applies: 10 nM enzyme, 396 microM ATP, 8.5 microM peptide substrate; read-out: AKT2 IC50 (µM) Biochem assay. The procedure:
as §1
The in vitro kinase inhibition assay was conducted in the same way as described for AKT1. The kinase assay was run with a final enzyme concentration of 10 nM, in the presence of 396 microM ATP, 0.88 nM ^33P-γ-ATP and 8.5 microM substrate, a carboxy-terminally biotinylated peptide of the following sequence: ARKRERTYSFGHHA-biotin. The peptide was obtained in batches of >95% peptide purity from PRIMM labs Inc. (Boston MA, USA).

For orientation: IC50 means the concentration at which inhibition is half-maximal.

AKT1, sequence (P31749 whole entry, the tested form may be a part): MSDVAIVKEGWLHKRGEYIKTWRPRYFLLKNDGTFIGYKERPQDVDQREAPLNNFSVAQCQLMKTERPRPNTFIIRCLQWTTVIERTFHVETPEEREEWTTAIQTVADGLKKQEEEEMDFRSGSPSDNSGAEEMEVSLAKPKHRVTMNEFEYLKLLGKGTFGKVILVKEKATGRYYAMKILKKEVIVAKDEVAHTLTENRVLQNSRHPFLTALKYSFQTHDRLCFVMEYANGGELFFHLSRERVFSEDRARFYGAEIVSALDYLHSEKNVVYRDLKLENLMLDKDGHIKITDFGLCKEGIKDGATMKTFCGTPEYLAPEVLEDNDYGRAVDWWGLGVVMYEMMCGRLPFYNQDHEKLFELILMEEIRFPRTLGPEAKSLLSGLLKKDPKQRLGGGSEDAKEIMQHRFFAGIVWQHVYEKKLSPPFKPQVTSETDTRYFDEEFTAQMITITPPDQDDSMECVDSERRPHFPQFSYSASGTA
AKT3, sequence (Q9Y243 2-479): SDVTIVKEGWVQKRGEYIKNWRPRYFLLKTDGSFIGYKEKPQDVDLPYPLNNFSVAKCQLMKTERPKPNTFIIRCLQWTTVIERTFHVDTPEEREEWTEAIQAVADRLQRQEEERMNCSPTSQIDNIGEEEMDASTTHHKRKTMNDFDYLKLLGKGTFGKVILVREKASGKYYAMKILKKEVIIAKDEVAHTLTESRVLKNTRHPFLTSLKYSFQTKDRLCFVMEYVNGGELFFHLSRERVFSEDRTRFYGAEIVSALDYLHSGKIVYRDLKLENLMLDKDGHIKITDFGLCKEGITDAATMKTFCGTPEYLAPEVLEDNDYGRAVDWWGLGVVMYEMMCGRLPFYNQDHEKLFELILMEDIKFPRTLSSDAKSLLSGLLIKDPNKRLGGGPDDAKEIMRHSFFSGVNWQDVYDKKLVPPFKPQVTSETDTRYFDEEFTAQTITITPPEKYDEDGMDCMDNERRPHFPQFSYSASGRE

For the molecule `NC[C@H](Cc1ccccc1)NC(=O)c1cc2c3c(nccc3c1)NC2` [Cpd. 7, N-[(1S)-2-amino-1-benzylethyl]-1,2-dihydropyrrolo[4,3,2-ij]isoquinoline-4-carboxamide], the concentration for half-maximal inhibition (IC50) in assay [1] amounted to 0.132 µM; in assay [2], 0.717 µM; in assay [3], 0.797 µM.

With `O=C(N[C@H](CN1CCCC1)c1ccccc1)c1cc2c3c(nccc3c1)NC2` [Cpd. 8, N-[(1S)-1-phenyl-2-pyrrolidin-1-ylethyl]-1,2-dihydropyrrolo[4,3,2-ij]isoquinoline-4-carboxamide], the results for the half-maximal inhibitory concentration (IC50) in assay [1], in assay [2] and in assay [3] were 0.431 µM, 1.06 µM and 1.86 µM, respectively.

The record behind these values is patent EP2002836B1, “Cyclocondensed azaindoles active as kinase inhibitors” (Nerviano Medical Sciences S.r.l., priority 2007, dated 2008).
